pIC50: −log10 of the molar value. Where only a bound is given, the exact number is not on record here.

The values that follow come from patent US20190240225A1, “COMBINATION OF A BCL-2 INHIBITOR AND A MCL-1 INHIBITOR, USES AND PHARMACEUTICAL COMPOSITIONS THEREOF” (LES LABORATOIRES SERVIER, priority 2016, published 2019).

The test system of one experiment is primary AML blasts. Put plainly: Cell viability (sytox blue, flow cytometry) of primary AML patient samples, LC50. The settings on record: 54 primary AML samples; 48 h; RPMI/15% FCS; combination at 1:1. In kind it is cell-based, human.
For a further experiment, the system named is AMO1. The experiment can be described thus: MTT cell viability assay, myeloma cell line. The settings on record: Homo sapiens, single agent, read-out: IC50. The experiment is classed as cell-based, human. As for the experimental part: (§1) Cell lines: Human myeloma cell lines (HMCLs) were derived from primary myeloma cells cultured in RPMI 1640 medium supplemented with 5% fetal calf serum from and 3 ng/mL recombinant IL-6 for IL-6 dependent cell lines. HMCLs are representative of phenotypic and genomic heterogeneity and the variability in patient's response to therapy.
(§2) MTT assay: Cell viability is measured using MTT (3-(4,5-dimethylthiazol-2-yl)-2,5-diphenyltetrazolium bromide) colorimetric survival assay. Cells are incubated with compounds in 96-well plates containing a final volume of 100 μl/well time. (2R)-2-{[(5Sa)-5-{3-chloro-2-methyl-4-[2-(4-methylpiperazin-1-yl)ethoxy]phenyl}-6-(5-fluorofuran-2-yl)thieno[2,3-d]pyrimidin-4-yl]oxy}-3-(2-{[1-(2,2,2-trifluoroethyl)-1H-pyrazol-5-yl]methoxy}phenyl)propanoic acid (Compound 2) is used at 9 different concentrations accordingly to single agent sensitivity. N-(4-hydroxyphenyl)-3-{6-[((3S)-3-(4-morpholinylmethyl)-3,4-dihydro-2(1H)-isoquinolinyl)carbonyl]-1,3-benzodioxol-5-yl}-N-phenyl-5,6,7,8-tetrahydro-1-indolizine carboxamide hydrochloride (Compound 1, HCl) is used at a fixed dose—1 μM. At the end of each treatment, cells are incubated with 1 mg/mL MTT (50 μl MTT solution 2.5 mg/ml for each well) at 37° C. for 3 hours allowing the MTT to be metabolized. Lysis buffer (100 μl Lysis buffer: DMF (2:3)/SDS (1:3)) is added into each well to dissolve formazan cristals and after 18 h of incubation, absorbance in viable cells is measured at 570 nm using a spectrophotometer.
(§3) The sensitivity of 27 human multiple myeloma cell lines to Compound 1, Compound 2 or to Compound 2 in the presence of 1 μM of Compound 1 was analyzed by using MTT cell viability assay. 50% inhibitory concentrations (IC50, in nM) were determined.
For orientation: Tetrazolium dyes change colour on reduction, which living cells bring about.

Another experiment concerns JIM3. Put plainly: MTT cell viability assay, myeloma cell line. The experiment is classed as cell-based, human. The settings on record: Homo sapiens, single agent, read-out: IC50. The method, then: as §1, §2, §3
The subject of another experiment is JJN3. The experiment can be described thus: MTT cell viability assay, myeloma cell line. In kind it is cell-based, human. The note with it: Homo sapiens, JJN-3, single agent, read-out: IC50. As for the experimental part:
as §1, §2, §3

Another experiment deals with L363. Put plainly: MTT cell viability assay, myeloma cell line. The settings on record: Homo sapiens, L-363, single agent, read-out: IC50. In kind it is cell-based, human. The method, then: as §1, §2, §3
The test system of the next experiment is LP1. Put plainly: MTT cell viability assay, myeloma cell line. The experiment is classed as cell-based, human. The note with it: Homo sapiens, LP-1, single agent, read-out: IC50. As for the experimental part:
as §1, §2, §3

The test system of a further experiment is NAN3. Put plainly: MTT cell viability assay, myeloma cell line. The experiment is classed as cell-based, human. The note with it: Homo sapiens, single agent. The method, then: as §1, §2, §3
For a further experiment, the system named is NAN8. The experiment can be described thus: MTT cell viability assay, myeloma cell line. The experiment is classed as cell-based, human. The note with it: Homo sapiens, single agent, read-out: IC50. The method, then: as §1, §2, §3
Another experiment concerns NAN9. The experiment can be described thus: MTT cell viability assay, myeloma cell line. The experiment is classed as cell-based, human. The note with it: Homo sapiens, single agent, read-out: IC50. As for the experimental part: as §1, §2, §3
The test system of a further experiment is RPMI8226. The experiment can be described thus: MTT cell viability assay, myeloma cell line. In kind it is cell-based, human. The note with it: Homo sapiens, RPMI-8226, single agent, read-out: IC50. The method, then: as §1, §2, §3
The next experiment concerns SBN. Put plainly: MTT cell viability assay, myeloma cell line. In kind it is cell-based, human. The note with it: Homo sapiens, single agent, read-out: IC50. As for the experimental part:
as §1, §2, §3

The test system of a further experiment is U266. Put plainly: MTT cell viability assay, myeloma cell line. The settings on record: Homo sapiens, U-266, single agent, read-out: IC50. The experiment is classed as cell-based, human. The method, then:
as §1, §2, §3

In a further experiment the test system is XG11. The experiment can be described thus: MTT cell viability assay, myeloma cell line. The experiment is classed as cell-based, human. The settings on record: Homo sapiens, single agent, read-out: IC50. The method, then:
as §1, §2, §3

The next experiment relates to XG1. Put plainly: MTT cell viability assay, myeloma cell line. In kind it is cell-based, human. The note with it: Homo sapiens, single agent, read-out: IC50. The method, then: as §1, §2, §3
The test system of the next experiment is XG2. Put plainly: MTT cell viability assay, myeloma cell line. The experiment is classed as cell-based, human. The settings on record: Homo sapiens, single agent, read-out: IC50. The method, then:
as §1, §2, §3

A further experiment deals with XG3. The experiment can be described thus: MTT cell viability assay, myeloma cell line. In kind it is cell-based, human. The note with it: Homo sapiens, single agent, read-out: IC50. The method, then:
as §1, §2, §3

A further experiment relates to XG6. The experiment can be described thus: MTT cell viability assay, myeloma cell line. In kind it is cell-based, human. The note with it: Homo sapiens, single agent, read-out: IC50. The method, then: as §1, §2, §3
For another experiment, the system named is neuroblastoma cell lines. Put plainly: CellTiterGlo viability, panel of neuroblastoma cell lines. In kind it is cell-based. The settings on record: all neuroblastoma cell lines tested; single agent. As for the experimental part: In addition, all media contained penicillin (100 IU/ml), streptomycin (100 μg/ml) and L-glutamine (2 mM). Cell lines were cultured at 37° C. in a humidified atmosphere containing 5% CO2 and expanded in T-150 flasks. In all cases cells were thawed from frozen stocks, expanded through ≥1 passage using appropriate dilutions, counted and assessed for viability using a CASY cell counter prior to plating 150 ul/well at the densities indicated in Table 6 into 96-well plates. All cell lines were determined to be free of mycoplasma contamination in-house.
Stock solutions of compounds were prepared at a concentration of 5 mM in DMSO and stored at −20° C. […] Effects of the compounds on cell viability were assessed after 2 or 3 days of incubation (as indicated in Table 6) at 37° C./5% CO2 by quantification of cellular ATP levels using CellTiterGlo at 150 μL reagent/well. […] Luminescence was quantified on a multipurpose platereader. Single agent IC50s were calculated using standard four-parametric curve fitting. […]
Identical experiments were performed to assess potential synergistic interactions between compound combinations. Synergy Score were assessed using the Excess Inhibition 2D matrix according to the Loewe additivity model (Lehar et al, Nat Biotechnol. 2009 July; 27(7): 659-666). […]

Description for primary AML blasts: Primary AML patient samples: Bone marrow or peripheral blood samples from patients with AML were collected after informed consent in accordance with guidelines approved by The Alfred Hospital Human research ethics committees. Mononuclear cells were isolated by Ficoll-Paque (GE Healthcare, VIC, Aus) density-gradient centrifugation, followed by red cell depletion in ammonium chloride (NH4Cl) lysis buffer at 37° C. for 10 minutes. Cells were then re-suspended in phosphate-buffered saline containing 2% Fetal Bovine serum (Sigma, NSW, Aus). Mononuclear cells were then suspended in RPMI-1640 (GIBCO VIC, Aus) medium containing penicillin and streptomycin (GIBCO) and heat inactivated fetal bovine serum 15% (Sigma).
Cell Viability: Freshly purified mononuclear cells from AML patient samples were adjusted to a concentration of 2.5×10^5/ml and 100 μL of cells aliquoted per well into 96 well plates (Sigma). […] For combinations assays, drugs were added at a 1:1 ratio from 1 nM to 10 μM and incubated at 37° C. 5% CO2. Cells were then stained with sytox blue nucleic acid stain (Invitrogen, VIC, Aus) and fluorescence measured by flow cytometric analysis using the LSR-II Fortessa (Becton Dickinson, NSW, Aus). FACSDiva software was used for data collection, and FlowJo software for analysis. Blast cells were gated using forward and side scatter properties. […]

As to `O=C(c1cc(-c2cc3c(cc2C(=O)N2Cc4ccccc4C[C@H]2CN2CCOCC2)OCO3)n2c1CCCC2)N(c1ccccc1)c1ccc(O)cc1` [Compound 1, N-(4-hydroxyphenyl)-3-{6-[((3S)-3-(4-morpholinylmethyl)-3,4-dihydro-2(1H)-isoquinolinyl)carbonyl]-1,3-benzodioxol-5-yl}-N-phenyl-5,6,7,8-tetrahydro-1-indolizine carboxamide], the “proportion of primary AML samples highly sensitive (LC50<10 nM)” value in the experiment with primary AML blasts is “Approximately 20%”.
As a reminder, the pIC50 is −log10 of the IC50, conventionally taken in molar units. Regarding `Cl.O=C(c1cc(-c2cc3c(cc2C(=O)N2Cc4ccccc4C[C@H]2CN2CCOCC2)OCO3)n2c1CCCC2)N(c1ccccc1)c1ccc(O)cc1` [Compound 1, HCl, N-(4-hydroxyphenyl)-3-{6-[((3S)-3-(4-morpholinylmethyl)-3,4-dihydro-2(1H)-isoquinolinyl)carbonyl]-1,3-benzodioxol-5-yl}-N-phenyl-5,6,7,8-tetrahydro-1-indolizine carboxamide hydrochloride], the pIC50 is 5.06 with AMO1; less than 4.52 with JIM3; 5.57 in the experiment on JJN3; 5.12 with L363; 5.01 with LP1; 5.08 in the experiment with NAN3. Also, the pIC50 with NAN8 was 5.04; with NAN9, 4.64; in the experiment with RPMI8226 it was 5.49; in the experiment with SBN, 4.67; with U266, less than 4.52; in the experiment with XG11 it was 5.10. The pIC50 was 5.01 in the experiment on XG1; 4.82 in the experiment with XG2; 5.14 with XG3; 5.07 in the experiment with XG6; less than 6.00 in the experiment with neuroblastoma cell lines.
